Measurements published in ChEMBL document CHEMBL4033666, “Synthesis and mechanistic evaluation of novel N'-benzylidene-carbohydrazide-1H-pyrazolo[3,4-b]pyridine derivatives as non-anionic antiplatelet agents” (Eur J Med Chem, 2017).
Active and inactive are the calls of the source.

Legend:
Platelet [1] = test: Antiplatelet activity in human platelet rich plasma assessed as inhibition of arachidonic acid-induced platelet aggregation at 100 uM preincubated for 2 mins followed by arachidonic acid addition by turbidimetric method relative to control; assay type: functional
Platelet [2] = test: Antiplatelet activity in human platelet rich plasma assessed as inhibition of ADP-induced platelet aggregation at 100 uM preincubated for 2 mins followed by ADP addition by turbidimetric method relative to control; assay type: cell-based
Platelet [3] = test: Antiplatelet activity in human platelet rich plasma assessed as inhibition of collagen-induced platelet aggregation at 100 uM preincubated for 2 mins followed by collagen addition by turbidimetric method relative to control; assay type: cell-based
Platelet [4] = test: Antiplatelet activity in human platelet rich plasma assessed as inhibition of epinephrine-induced platelet aggregation at 100 uM preincubated for 2 mins followed by epinephrine addition by turbidimetric method relative to control; assay type: cell-based
Plasma [5] = test: Change in prothrombin time in human plasma at 100 uM incubated for 15 mins at room temperature and 2 mins at 37 degC in presence of calcium thromboplastin; assay type: ADME, cell-free
Plasma [6] = test: Change in activated partial thromboplastin time in human plasma at 100 uM incubated for 15 mins at room temperature and 2 mins at 37 degC in presence of CaCl2; assay type: ADME, cell-free
[7] = Hemolytic activity against human erythrocytes after 3 hrs relative to control; assay type: ADME, cell-based, Erythrocyte; settings: read-out: Activity
Platelet [8] = test: Antiplatelet activity in human platelet rich plasma assessed as inhibition of arachidonic acid-induced platelet aggregation preincubated for 2 mins followed by arachidonic acid addition by turbidimetric method relative to control; assay type: functional, cell-based
[9] = target: T1, Thromboxane-A synthase (Homo sapiens) (UniProt P24557); test: Inhibition of TXS in human platelet rich plasma assessed as decrease in TXB2 production at 100 uM using arachidonic acid after 5 mins by ELISA
T1 sequence (whole entry): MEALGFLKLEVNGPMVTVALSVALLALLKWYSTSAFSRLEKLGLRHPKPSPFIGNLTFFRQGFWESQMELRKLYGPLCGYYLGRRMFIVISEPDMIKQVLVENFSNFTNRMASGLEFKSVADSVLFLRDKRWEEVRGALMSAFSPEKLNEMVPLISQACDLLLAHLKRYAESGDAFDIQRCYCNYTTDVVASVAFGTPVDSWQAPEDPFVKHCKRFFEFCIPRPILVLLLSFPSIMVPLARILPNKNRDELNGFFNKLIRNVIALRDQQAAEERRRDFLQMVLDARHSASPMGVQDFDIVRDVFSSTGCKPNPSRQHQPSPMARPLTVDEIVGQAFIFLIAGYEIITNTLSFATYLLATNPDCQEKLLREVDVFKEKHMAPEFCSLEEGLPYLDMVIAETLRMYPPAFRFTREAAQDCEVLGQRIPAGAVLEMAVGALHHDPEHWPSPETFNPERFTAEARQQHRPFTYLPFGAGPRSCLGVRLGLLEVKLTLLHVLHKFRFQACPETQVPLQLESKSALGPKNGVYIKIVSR

Cc1nn(-c2ccccc2)c2nc(C(F)(F)F)cc(C(=O)N/N=C/c3ccc(Br)cc3)c12
inhibition at 100 µM (Platelet [1]): 6.18% | inhibition at 100 µM (Platelet [2]): 7.46% | inhibition at 100 µM (Platelet [3]): 5.37% | inhibition at 100 µM (Platelet [4]): 1.52% | Activity (Plasma [5]): Non-Toxic | Activity (Plasma [6]): Non-Toxic

CCOc1ccc(/C=N/NC(=O)c2cc(C(F)(F)F)nc3c2c(C)nn3-c2ccccc2)cc1
inhibition at 100 µM (Platelet [1]): 1.26% | inhibition at 100 µM (Platelet [2]): 5.55% | inhibition at 100 µM (Platelet [3]): 2% | inhibition at 100 µM (Platelet [4]): 13.1% | hemolysis at 3 h [7]: 30% | Activity (Plasma [5]): Non-Toxic | Activity (Plasma [6]): Non-Toxic

Cc1ccc(/C=N/NC(=O)c2cc(C(F)(F)F)nc3c2c(C)nn3-c2ccccc2)cc1
inhibition at 100 µM (Platelet [1]): 0.27% | inhibition at 100 µM (Platelet [2]): 0.27% | inhibition at 100 µM (Platelet [3]): 7.84% | inhibition at 100 µM (Platelet [4]): 0.71% | Activity (Plasma [5]): Non-Toxic | Activity (Plasma [6]): Non-Toxic

Cc1cc(C(=O)N/N=C/c2ccc(C#N)cc2)c2c(C)nn(-c3ccccc3)c2n1
inhibition at 100 µM (Platelet [1]): 24.4% | inhibition at 100 µM (Platelet [2]): 33.6% | inhibition at 100 µM (Platelet [3]): 1.68% | inhibition at 100 µM (Platelet [4]): 0% | Activity (Plasma [5]): Non-Toxic | Activity (Plasma [6]): Non-Toxic

CC(=O)Oc1ccccc1C(=O)O [ASPIRIN]
inhibition at 100 µM (Platelet [1]): 96.6% | inhibition at 100 µM (Platelet [2]): 41.9% | inhibition at 100 µM (Platelet [3]): 85.3% | inhibition at 100 µM (Platelet [4]): 58.6% | IC50 (Platelet [8]): 37.6 µM | inhibition [9]: Active

COc1ccc(/C=N/NC(=O)c2cc(C)nc3c2c(C)nn3-c2ccccc2)cc1
inhibition at 100 µM (Platelet [1]): 3.43% | inhibition at 100 µM (Platelet [2]): 2.9% | inhibition at 100 µM (Platelet [3]): 15% | inhibition at 100 µM (Platelet [4]): 8.4% | Activity (Plasma [5]): Non-Toxic | Activity (Plasma [6]): Non-Toxic

Cc1nn(-c2ccccc2)c2nc(C(F)(F)F)cc(C(=O)N/N=C/c3ccc(C#N)cc3)c12
inhibition at 100 µM (Platelet [1]): 4.77% | inhibition at 100 µM (Platelet [2]): 4.55% | inhibition at 100 µM (Platelet [3]): 3.59% | inhibition at 100 µM (Platelet [4]): 0% | Activity (Plasma [5]): Non-Toxic | Activity (Plasma [6]): Non-Toxic

Cc1nn(-c2ccccc2)c2nc(C(F)(F)F)cc(C(=O)N/N=C/c3ccc(F)cc3)c12
inhibition at 100 µM (Platelet [1]): 0% | inhibition at 100 µM (Platelet [2]): 7.95% | inhibition at 100 µM (Platelet [3]): 0.3% | inhibition at 100 µM (Platelet [4]): 0% | Activity (Plasma [5]): Non-Toxic | Activity (Plasma [6]): Non-Toxic

Cc1cc(C(=O)N/N=C/c2ccccc2)c2c(C)nn(-c3ccccc3)c2n1
inhibition at 100 µM (Platelet [1]): 3.96% | inhibition at 100 µM (Platelet [2]): 0% | inhibition at 100 µM (Platelet [3]): 9.6% | inhibition at 100 µM (Platelet [4]): 7% | Activity (Plasma [5]): Non-Toxic | Activity (Plasma [6]): Non-Toxic
